Data taken from patent US20080171710A1, “The Redox/Fyn/c-Cbl Pathway” (priority 2007, published 2008).
Read-outs that look alike come from different tables or passages of the source.

What was measured:
PDGFRα = assay type: cell-based, rat; conditions: for effect on MeHg-induced reductions in levels of PDGFRα: together with MeHg; for effect on Pb- and paraquat-induced reductions in levels of PDGFRα: together with Pb (1 μM) or paraquat (5 μM); for absolute levels of PDGFRα: O-2A/OPCs in PDGF, 24 hr exposure
Fyn [1] = molecular target: T1, Fyn (Rattus norvegicus, UniProt Q62844); assay type: cell-based; conditions: for effect on MeHg-induced Fyn activation: added 1 h before MeHg
T1 construct: 250 μg of total cell lysates were immunoprecipitated with anti-Fyn antibody; endogenous in cells; host or cells: primary rat O-2A/OPCs
T1 sequence (Q62844 whole entry): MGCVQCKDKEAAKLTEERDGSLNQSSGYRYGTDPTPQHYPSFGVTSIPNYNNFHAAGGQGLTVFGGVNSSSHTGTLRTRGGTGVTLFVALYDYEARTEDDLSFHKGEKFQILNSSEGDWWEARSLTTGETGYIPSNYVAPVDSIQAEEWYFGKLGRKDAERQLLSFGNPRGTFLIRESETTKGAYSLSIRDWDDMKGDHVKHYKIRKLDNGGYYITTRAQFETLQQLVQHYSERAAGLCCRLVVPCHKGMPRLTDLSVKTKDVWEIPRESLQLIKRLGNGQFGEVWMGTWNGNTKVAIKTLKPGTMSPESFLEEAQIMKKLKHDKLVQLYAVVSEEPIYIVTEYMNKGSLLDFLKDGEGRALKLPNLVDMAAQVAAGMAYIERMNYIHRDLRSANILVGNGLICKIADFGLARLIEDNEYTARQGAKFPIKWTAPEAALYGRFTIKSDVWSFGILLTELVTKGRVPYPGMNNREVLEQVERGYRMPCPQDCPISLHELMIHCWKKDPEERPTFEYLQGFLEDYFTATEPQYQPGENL
Method: Fyn kinase activity was quantified using the Universal Tyrosine Kinase Assay Kit (Takara, Madison, Wis., United States). O-2A/OPCs exposed to different treatments were solubilized with an equal volume of the extraction buffer provided with the kit for 15 min, and the resulting lysates were centrifuged at 13,000×g for 15 min at 4° C.; 250 μg of total cell lysates were immunoprecipitated with anti-Fyn antibody (Santa Cruz Biotechnology). Following immunoprecipitation, Fyn immune complexes were washed four times with extraction buffer, and then Fyn kinase activities of each sample were assayed using the kit according to the manufacturer's instructions.

c-Cbl = assay type: cell-based, rat; conditions: for effect on MeHg-induced c-Cbl phosphorylation: added 1 h before MeHg
Method: For the co-immunoprecipitation assay, anti-c-Cbl monoclonal antibody (BD PharMingen) or anti-PDGFRα polyclonal antibody (Santa Cruz Biotechnology) was added to the pre-cleared cell lysates (250 μg of total protein), and the mixtures were gently rocked for 2 h at 4° C. A total of 30 μl of protein A/G agarose was then added to the mixture followed by rotating at 4° C. overnight. The protein A/G agarose was then spun down and washed thoroughly three times. The precipitates were resolved on an 8% SDS-PAGE gel and then were subjected to Western blot analysis using an anti-p-Tyr (for c-Cbl phosphorylation assay) or ubiquitin (for PDGFR ubiquitylation assay) antibody (Santa Cruz Biotechnology).

O-2A/OPCs [2] = assay: In vitro BrdU incorporation assay; assay type: cell-based, rat; conditions: with TMX, 2 days
Method: Cell proliferation was assessed by bromodeoxyuridine (BrdU) incorporation and by using the mouse anti-BrdU mAb IgGl (1:100; Sigma) to label dividing cells. Stained cells on cover slips were rinsed two times in 1×PBS, counterstained with 4′6-diamidino-2-phenylindole (DAPI; Molecular Probes, Eugene, Oreg., United States) and mounted on glass slides with Fluoromount (Molecular Probes). Staining against surface proteins was performed on cultures of living cells or on cells fixed with 2% paraformaldehyde. Staining with intracellular antibodies was performed by permeabilizing cells with ice-cold methanol for 4 min or by using 0.5% Triton for 15 mm on 2% parafomaldhyde-fixed cells. Antibody binding was detected with appropriate fluorescent dye-conjugated secondary antibodies at 10 μg/ml (Southern Biotech, Birmingham, Ala., United States) or Alexa Fluor-coupled antibodies at a concentration of 1 μg/ml (Molecular Probes), applied for 20 min. Anti-BrdU monoclonal antibody was obtained from Sigma.

SRE-luciferase reporter = SRE-luciferase reporter assay; assay type: cell-based, rat; conditions: PDGF plus TH or BMP-4 (10 ng/ml), 24 hr
Method: (§1) Cells were deprived of PDGF-AA for 5 h before re-exposure to PDGF-AA (10 ng/ml) for 1 h for Western blot or 6 h for luciferase assays of pathway activation. Transient transfection was performed using Fugene6 (Roche, Basel, Switzerland ) transfection solution according to the manufacturer's protocol. For the luciferase assay, cells seeded in 12-well plates were transfected with a reporter plasmid SRE-Luc(firefly) or NF-κB-Luc(firefly) (BD-Clontech, Palo Alto, Calif., United States) and an internal control plasmid pRLSV40-LUC. Analyses of luciferase activity were performed according to the protocol of the Dual Luciferase Assay System (Promega, Madison, Wis., United States), which uses an internal control of Renilla luciferase for quantification, and relative light units were measured using a luminometer.

Erk1/2 = assay type: cell-based, rat; conditions: for Erk1/2 phosphorylation caused by PDGF: co-exposure 24 hr, TH, BMP4, FGF-2 or NT-3 (10 ng/ml); for NT-3-stimulated Erk1/2 phosphorylation: co-exposure to TH, BMP-4 or FGF-2
Method: as §1
(§2) Anti-phosphorylated Erk monoclonal, anti-Erk monoclonal, anti-TrkC polyclonal anti-Fyn polyclonal, anti-EGFR polyclonal, anti-c-Met polyclonal, anti-phospho-tyrosine monoclonal, and anti-PDGFRα polyclonal antibodies were obtained from Santa Cruz Biotechnology (Santa Cruz, Calif., United States). Anti-c-Cbl monoclonal antibody was obtained from BD PharMingen (San Diego, Calif., United States). Anti-phosphorylated Akt monoclonal and anti-Akt polyclonal antibodies were obtained from Cell Signaling Technology (Beverly, Mass., United States). Anti-phosphorylated PDGPRα polyclonal antibody was obtained from Biosource (Carlsbad, Calif., United States). The cell culture samples were collected and lysed in RAPI buffer, whereas dissected tissue samples were sonicated in RAPI buffer. Samples were resolved on SDS-PAGE gels and transferred to PVDF membranes (PerkinElmer Life Science. Wellesley, Mass., United States), After being blocked in 5% skim milk in PBS containing 0.1% Tween 20, membranes were incubated with a primary antibody, followed by incubation with an HRP-conjugated secondary antibody (Santa Cruz Biotechnology). Membranes were visualized using Western Blotting Luminol Reagent (Santa Cruz Biotechnology). All analyses of signaling pathway components were conducted in the presence of ligand for the receptor pathway under analysis (either PDGF-AA for PDGFRα, NT-3 or TrkC, HGF for c-Met, or EGF for EGFR).

O-2A/OPCs [3] = assay: Cell death of O-2A/OPCs on exposure; assay type: cell-based, rat
Method: To generate sufficient numbers of cells for biochemical analysis, cells, were expanded through one to two passages in PDGF+FGF-2 before replating in the presence of PDGF alone. When cells achieved approximately 50% confluence, MeHg, Pb, or paraquat was added to their medium at concentrations indicated. Doses for the toxicants were chosen on the basis of dose-response curves to identify sub-lethal exposure levels, as a reflection of blood and brain toxicant levels of these compounds and, where applicable, on the basis of previous reports. All toxicant concentrations examined were confirmed to cause death of less than 5% of cells over the time course of the experiment.

Fyn [4] = assay type: cell-based, rat; conditions: exposure to Aβ (5-20 μM)
TrkC = assay type: cell-based, rat; conditions: O-2A/OPCs in NT-3, 24 hr exposure
Description: as §2

c-Met = assay type: cell-based, rat; conditions: O-2A/OPCs in HGF, 24 hr exposure
Description: as §2

[5] = added 1 h before Pb or paraquat
[6] = NAC 1 mM, PP1 100 nM or ICI 182,780 200 nM with TMX
[7] = O-2A/OPCs induced to divide by PDGF, 3-4 hr exposure

CN(C)CCCn1cc(C2=C(c3c[nH]c4ccccc34)C(=O)NC2=O)c2ccccc21 [BIM-1, bisindoleylmaleimide I]
effect on MeHg-induced reductions in levels of PDGFRα (PDGFRα): did not protect | effect on Pb- and paraquat-induced reductions in levels of PDGFRα (PDGFRα): did not protect | effect on MeHg-induced Fyn activation (Fyn [1]): did not prevent | effect on Pb- and paraquat-induced Fyn activation (Fyn [1]; [5]): did not prevent | effect on MeHg-induced c-Cbl phosphorylation (c-Cbl): did not prevent | effect on Pb- and paraquat-induced c-Cbl phosphorylation (c-Cbl; [5]): did not prevent

C[C@]12CC[C@@H]3c4ccc(O)cc4C[C@@H](CCCCCCCCC[S+]([O-])CCCC(F)(F)C(F)(F)F)[C@H]3[C@@H]1CC[C@@H]2O (stereo partly shown) [ICI 182780]
effect on TMX effect on cell proliferation (O-2A/OPCs [2]): blocked | effect on TMX-induced reductions in levels of PDGFRα (PDGFRα; [6]): rescued | effect on TMX-induced activation of Fyn (Fyn [1]; [6]): prevented | effect on TMX-induced activation of c-Cbl (c-Cbl; [6]): prevented

CC(C)(C)n1nc(-c2ccc(Cl)cc2)c2c(N)ncnc21 [PP2]
effect on MeHg-induced Fyn activation (Fyn [1]): blocked | effect on MeHg-induced c-Cbl phosphorylation (c-Cbl): blocked

N[C@@H](Cc1cc(I)c(Oc2ccc(O)c(I)c2)c(I)c1)C(=O)O [TH, thyroid hormone, reference compound]
SRE-reporter gene expression (SRE-luciferase reporter): greatly reduces | Erk1/2 phosphorylation caused by PDGF (Erk1/2): reduce | NT-3-stimulated Erk1/2 phosphorylation (Erk1/2): not affected | absolute levels of PDGFRα (PDGFRα): reductions

C[C@@H]1C[C@@H]([C@H](O)CC2CC(=O)NC(=O)C2)C(=O)[C@@H](C)C1 [cycloheximide]
levels of PDGFRα on inhibition of protein synthesis (PDGFRα; cycloheximide 1 μg/ml): reductions

O=C1N[C@H](C(=O)O)CS1 [proeysteinc, procysteine]
effect on Pb- and paraquat-induced reductions in levels of PDGFRα (PDGFRα): protected

Aβ(1-42): amino acids 1-42 of amyloid beta protein
Erk1/2 phosphorylation induced by NT-3 (Erk1/2; exposure to Aβ(1-42)): had no effect | PDGF-mediated induction of Erk1/2 phosphorylation (Erk1/2; exposure to Aβ(1-42)): inhibited | levels of PDGFRα (PDGFRα; exposure to Aβ): reduced | c-Cbl phosphorylation (c-Cbl; exposure to Aβ (5-20 μM)): phosphorylated | cell death (O-2A/OPCs [3]; 5-10 μM Aβ(1-42), 48 hrs): little cell death | concentration inducing progenitor cell death (O-2A/OPCs [3]; O-2A/OPCs): 20 µM | Fyn phosphorylation (Fyn [4]): phosphorylated

bone morphogenetic protein-4 [BMP-4]
SRE-reporter gene expression (SRE-luciferase reporter): greatly reduces | Erk1/2 phosphorylation caused by PDGF (Erk1/2): reduce | NT-3-stimulated Erk1/2 phosphorylation (Erk1/2): not affected | absolute levels of PDGFRα (PDGFRα): reductions | levels of TrkC (TrkC): unaffected | c-Met levels (c-Met): decreases | fyn activation (Fyn [1]; differentiation inducers TH and BMP): activated | c-Cbl phosphorylation (c-Cbl; [7]): increased phosphorylation

fibroblast growth factor-2 [FGF-2]
Erk1/2 phosphorylation caused by PDGF (Erk1/2): enhances signaling | NT-3-stimulated Erk1/2 phosphorylation (Erk1/2): not affected | levels of PDGFRα in the presence of actinomycin D (PDGFRα; FGF-2 10 ng/ml and PDGF, 24 hr): still show increased levels | absolute levels of PDGFRα (PDGFRα): increase | levels of TrkC (TrkC): unaffected | c-Met levels (c-Met): increased | c-Cbl phosphorylation (c-Cbl; [7]): caused a reduction

B1: neurotrophin-3 (protein, UniProt P20783 139-257, looked up)
Neurotrophin-3: YAEHKSHRGEYSVCDSESLWVTDKSSAIDIRGHQVTVLGEIKTGNSPVKQYFYETRCKEARPVKNGCRGIDDKHWNSQCKTSQTYVRALTSENNKLVGWRWIRIDTSCVCALSRKIGRT
notes: signaling molecule that enhances self-renewal
Erk1/2 phosphorylation caused by PDGF (Erk1/2): enhances signaling | absolute levels of PDGFRα (PDGFRα): increase | levels of TrkC (TrkC): unaffected | c-Met levels (c-Met): increased | c-Cbl phosphorylation (c-Cbl; [7]): caused a reduction

B2: scrambled (Scr) RNAi: scrambled negative control for c-Cbl RNAi, SEQ ID NO: 7 and 8 (nucleic acid)
chain 1: TTTAAACCCGGCCCTTTGGTTCAAGAGACCAAAGGGCCGGGTTTAAATTTTTT
chain 2: AATTAAAAAATTTAAACCCGGCCCTTTGGTCTCTTGAACCAAAGGGCCGGGTTTAAAGGCC
effect on MeHg-induced reductions in levels of PDGFRα (PDGFRα): had no effect
